From ChEMBL document CHEMBL1201862, “PubChem BioAssay data set” (2004)
Where “and” joins values, the source holds several entries; their conditions need not be identical. Equal values may be shown once.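 Exposure lasted 48 hours, with cells grown in 96-well plates and compounds tested at five concentrations. Here, GI50 denotes the concentration required for 50% inhibition of growth.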 Calls of active or inactive are those of the source. Cut-off read from the data, not from the text of the source: active = GI50 up to about 1.1 µM and inactive = higher.

Columns and labels:
Experiment in all cases: inhibition of tumour cell growth, NCI panel, 48 h
[1] = tested on: NCI-H522
[2] = tested on: OVCAR-8
[3] = tested on: PC-3
[4] = tested on: OVCAR-4
[5] = tested on: SK-MEL-28
[6] = tested on: Hs-578T
[7] = tested on: RPMI-8226
[8] = tested on: MDA-MB-231
[9] = tested on: ACHN
[10] = tested on: OVCAR-5
[11] = tested on: MDA-N
[12] = tested on: HL-60
[13] = tested on: Malme-3M
[14] = tested on: MOLT-4
[15] = tested on: TK-10
[16] = tested on: A549
[17] = tested on: K562
[18] = tested on: SF-268
[19] = tested on: SK-MEL-2
[20] = tested on: SN12C

Measured: GI50

Cc1c2n(c3ccccc13)S(=O)(=O)c1ccccc1-2
inactive: [1] 34.2 µM | [2] 21.2 µM | [3] 22.5 µM | [4] 17.2 µM | [5] > 100 µM | [6] 18.7 µM | [7] > 100 µM | [8] 17.8 µM | [9] 18.1 µM | [10] 88.3 µM | [11] 34.9 µM | [12] > 100 µM | [13] 33.1 µM | [14] > 100 µM | [15] 25.6 µM | [16] 23.4 µM | [17] > 100 µM

COc1cc(S(=O)(=O)Nc2ccc(-c3csc(/N=C\c4cccs4)n3)cc2)ccc1Cl
inactive: [1] 32.4 µM | [2] 87.5 µM | [3] > 100 µM | [4] > 100 µM | [5] 35.9 µM | [18] 33.7 µM | [6] 68.2 µM | [7] 29 µM | [19] 96.6 µM | [8] 87.7 µM | [9] > 100 µM | [10] > 100 µM | [11] 34.4 µM | [20] 89.5 µM | [13] 78 µM | [15] 49.9 µM | [16] 78.7 µM | [17] 42.9 µM

O=S(=O)(O)c1cc(Nc2ccnc3ccccc23)c2c(S(=O)(=O)O)cc(S(=O)(=O)O)cc2c1
inactive: [1] > 100 µM | [2] > 100 µM | [3] > 100 µM | [4] > 100 µM | [5] > 100 µM | [18] > 100 µM | [6] > 100 µM | [7] > 100 µM | [19] > 100 µM | [8] > 100 µM | [10] > 100 µM | [11] > 100 µM | [20] > 100 µM | [13] > 100 µM | [14] > 100 µM | [15] > 100 µM | [16] > 100 µM

CC(C)CC(NP(=O)(O)OC1OC(C)C(O)C(O)C1O)C(=O)NC(Cc1c[nH]c2ccccc12)C(=O)O (configuration not stated)
inactive: [1] > 100 µM | [2] > 100 µM | [3] > 100 µM | [4] > 100 µM | [5] > 100 µM | [18] > 100 µM | [6] > 100 µM | [7] > 100 µM | [8] > 100 µM | [10] > 100 µM | [11] > 100 µM | [20] > 100 µM | [13] > 100 µM | [14] > 100 µM | [16] > 100 µM | [17] > 100 µM

O=C1C2=Nc3ccccc3C(O)N2c2ccccc21 (configuration not stated)
inactive: [1] 8.91 µM | [2] 32.3 µM | [3] > 86.9 µM | [4] > 100 µM | [5] 23.4 µM | [18] 31.6 µM | [6] 40.5 µM | [7] 53.8 µM | [8] 14.9 µM | [9] 5.62 µM | [10] 81.1 µM | [11] 1.84 µM | [12] 2.37 µM | [20] 27.2 µM | [13] 14.3 µM | [14] > 87.5 µM | [15] > 100 µM | [16] 32.8 µM | [17] > 76 µM

COc1cc(C2SC(=N)Nc3c2c(C)nn3C(=O)Cc2ccccc2)ccc1O (configuration not stated)
inactive: [1] > 100 µM | [2] > 100 µM | [3] > 100 µM | [5] > 100 µM | [18] > 100 µM | [6] > 100 µM | [7] > 100 µM | [8] > 100 µM | [9] > 100 µM | [11] > 100 µM | [12] > 100 µM | [20] > 100 µM | [13] > 100 µM | [14] > 100 µM | [15] > 100 µM | [16] > 100 µM | [17] > 100 µM

N=C(N)SCc1cccc(-c2nc3ccccc3c(=O)o2)c1
inactive: [1] > 100 µM | [2] > 100 µM | [3] > 100 µM | [4] > 100 µM | [5] > 100 µM | [18] > 100 µM | [6] > 100 µM | [7] > 100 µM | [19] > 100 µM | [8] > 100 µM | [9] > 100 µM | [10] > 100 µM | [11] > 100 µM | [20] > 100 µM | [13] > 100 µM | [15] > 100 µM | [16] > 100 µM | [17] > 100 µM

COc1ccc2c3c1OC1c4[nH]c5ccccc5c4CC4(O)C(C2)N(C)CCC314 (configuration not stated)
inactive: [1] 25.1 µM | [2] 66.4 µM | [3] 37.2 µM | [4] 44.3 µM | [5] 17.4 µM | [18] 36.6 µM | [6] 21.3 µM | [7] 19.3 µM | [19] 18.4 µM | [8] 25.5 µM | [9] 20.6 µM | [10] 71.6 µM | [11] 17.3 µM | [20] 56.6 µM | [14] 16.7 µM | [15] 22.9 µM | [16] 59.2 µM | [17] 15.3 µM

CC1=NN(C(=O)CSc2nnc(SCC(=O)N3N=C(C)CC3(O)c3ccccc3)s2)C(O)(c2ccccc2)C1 (configuration not stated)
inactive: [1] 29.6 µM | [2] 26.9 µM | [3] 34.5 µM | [4] 32.9 µM | [5] > 100 µM | [18] 12.8 µM | [6] 36.3 µM | [7] 15.5 µM | [19] 29.2 µM | [8] 95.5 µM | [9] 34.8 µM | [10] 82.4 µM | [11] 39.6 µM | [20] 61.7 µM | [13] 99.1 µM | [14] 32.3 µM | [15] 54.3 µM | [16] 48.4 µM | [17] 32.6 µM

CC(C)(C)OC(=O)N(O)CCCn1cnc2c(NC3CC3)ncnc21
inactive: [1] > 100 µM | [2] > 100 µM | [3] > 100 µM | [4] > 100 µM | [5] > 100 µM | [18] > 100 µM | [6] > 100 µM | [7] > 100 µM | [19] > 100 µM | [8] > 100 µM | [9] > 100 µM | [10] > 100 µM | [11] > 100 µM | [20] > 100 µM | [13] > 100 µM | [14] > 100 µM | [15] > 100 µM | [16] > 100 µM | [17] > 100 µM

COc1nc(N)c(NC2OC(CO)C(O)C2O)c(=O)[nH]1 (configuration not stated)
inactive: [2] > 100 µM | [3] > 100 µM | [4] > 100 µM | [5] > 100 µM | [18] > 100 µM | [6] > 100 µM | [7] > 100 µM | [19] > 100 µM | [8] > 100 µM | [9] > 100 µM | [10] > 100 µM | [11] > 100 µM | [12] > 100 µM | [20] > 100 µM | [13] > 100 µM and 75.5 µM | [14] > 100 µM | [15] > 100 µM | [16] > 100 µM | [17] > 100 µM
